{"source": "patent US20190151289A1", "about": "“Identification of Small Molecule Inhibitors of Jumonji AT-Rich Interactive Domain 1A (JARID1A) Histone Demethylase” (YALE UNIVERSITY, priority 2016, published 2019)", "key": {"KDM5C": {"molecular_target": "T1, KDM5C (Homo sapiens, UniProt P41229)", "T1 construct": "FLAG; made in house", "T1 sequence (P41229 whole entry)": "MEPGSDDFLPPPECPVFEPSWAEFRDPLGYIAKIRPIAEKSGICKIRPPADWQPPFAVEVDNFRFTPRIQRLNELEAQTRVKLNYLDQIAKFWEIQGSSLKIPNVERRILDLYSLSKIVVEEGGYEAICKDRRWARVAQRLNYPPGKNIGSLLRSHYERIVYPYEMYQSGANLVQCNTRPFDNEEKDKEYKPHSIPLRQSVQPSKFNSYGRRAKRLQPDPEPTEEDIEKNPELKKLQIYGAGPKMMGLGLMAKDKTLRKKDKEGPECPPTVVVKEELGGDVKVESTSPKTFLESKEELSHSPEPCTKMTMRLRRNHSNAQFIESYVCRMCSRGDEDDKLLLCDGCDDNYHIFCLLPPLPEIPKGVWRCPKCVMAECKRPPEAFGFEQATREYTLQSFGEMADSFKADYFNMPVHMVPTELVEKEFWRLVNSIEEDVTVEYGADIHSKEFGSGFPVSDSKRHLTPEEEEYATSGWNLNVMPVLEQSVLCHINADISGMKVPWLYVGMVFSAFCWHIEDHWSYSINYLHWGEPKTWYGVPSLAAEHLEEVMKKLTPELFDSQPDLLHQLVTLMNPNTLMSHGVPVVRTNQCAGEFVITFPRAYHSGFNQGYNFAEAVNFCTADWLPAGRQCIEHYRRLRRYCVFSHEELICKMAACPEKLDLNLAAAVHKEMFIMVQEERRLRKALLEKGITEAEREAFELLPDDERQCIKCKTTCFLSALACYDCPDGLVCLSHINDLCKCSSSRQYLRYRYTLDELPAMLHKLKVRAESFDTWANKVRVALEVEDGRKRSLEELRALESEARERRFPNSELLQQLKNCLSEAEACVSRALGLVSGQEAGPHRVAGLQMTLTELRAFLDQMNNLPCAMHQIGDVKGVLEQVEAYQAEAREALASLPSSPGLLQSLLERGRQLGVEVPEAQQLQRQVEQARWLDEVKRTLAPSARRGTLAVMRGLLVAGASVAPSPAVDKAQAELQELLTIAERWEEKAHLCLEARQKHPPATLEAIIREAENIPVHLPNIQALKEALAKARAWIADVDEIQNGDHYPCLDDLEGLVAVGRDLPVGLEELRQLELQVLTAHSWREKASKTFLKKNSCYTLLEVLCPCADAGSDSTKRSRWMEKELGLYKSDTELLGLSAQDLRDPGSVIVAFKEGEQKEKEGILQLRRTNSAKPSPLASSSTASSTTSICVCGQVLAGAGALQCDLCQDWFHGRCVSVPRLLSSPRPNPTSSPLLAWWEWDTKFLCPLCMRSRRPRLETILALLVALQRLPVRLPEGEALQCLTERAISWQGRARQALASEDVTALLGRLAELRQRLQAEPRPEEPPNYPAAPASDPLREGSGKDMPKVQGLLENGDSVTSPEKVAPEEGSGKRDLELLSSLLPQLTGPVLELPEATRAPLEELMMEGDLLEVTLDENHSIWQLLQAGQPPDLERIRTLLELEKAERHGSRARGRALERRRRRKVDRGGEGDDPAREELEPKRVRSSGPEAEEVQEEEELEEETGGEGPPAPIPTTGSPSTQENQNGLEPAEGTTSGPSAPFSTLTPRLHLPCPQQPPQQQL", "assay": "AlphaScreen KDM5C demethylation assay", "assay_type": "biochemical", "procedure": "Histone demethylase assays were performed using previously described methods (Sayegh et al., 2013, J. Biol. Chem. 9408-9417), with the exception of all enzyme reactions containing 125 μM α-KG. Enzymes were used at the following approximate concentrations in validation experiments, chosen based on their activity in AlphaScreen assays: 19 nM FLAG-KDM5A, 15 nM FLAG-KDM5B, 6 nM FLAG-KDM5C, 29 nM His-FLAG-KDM6A, and 16 nM FLAG-KDM6B. 24 nM FLAG-KDM5A was used for Km determination experiments. Reactions were carried out for 1 hour, or were stopped by addition of 30 mM EDTA every 5 minutes for determining enzyme kinetics. Km values were calculated using the Michaelis-Menten non-linear regression analysis on GraphPad Prism 6.0 software. The concentration of DMSO in demethylation reactions was 0.05%. For reactions with catalase, catalase (Sigma C30) or an equal volume of dilution buffer was added to the peptide-containing buffer before addition of the demethylase. The final concentration of catalase in the reactions was 0.01 mg/ml.\nThe AlphaScreen general IgG (protein A) detection kit from PerkinElmer Life Sciences was used as described previously (Sayegh et al., 2013, J. Biol. Chem. 9408-9417). The luminescence emission was recorded at 570 nm using the AlphaScreen optic module on a Pherastar (BMG Labtech) or Envision (PerkinElmer Life Sciences) microplate reader."}, "[1]": {"tested_on": "H3K4 methylation in HeLa cells", "assay": "Western blot of global H3K4 methylation, HeLa", "assay_type": "cell-based, human", "procedure": "(§1) Sf21 insect cells were cultured at 27° C. in Grace's medium (Gibco) with 10% fetal bovine serum (FBS) and 1% penicillin/streptomycin. HeLa cells were cultured in DMEM (Gibco) with 10% FBS and 1% penicillin/streptomycin. BT474, MCF7, MDA-MB-231, PC9 and ZR-75-1 cells were cultured in RPMI 1640 (Gibco) with 10% FBS and 1% penicillin/streptomycin. MCF10A cells were cultured as using previously described methods (Sayegh et al., 2013, J. Biol. Chem. 9408-9417). All human cells were cultured at 37° C. and 5% carbon dioxide. HeLa and MCF7 cell lines were authenticated using short tandem repeat profiling performed at the DNA Analysis Facility on Science Hill at Yale University. All other human cell lines used were within 10 passages after being obtained from the American Type Culture Collection.\nCells were lysed using previously described methods (Lin et al., 2011, Proc. Natl. Acad. Sci. U.S.A. 108:13379-13386). Histones were separated by centrifugation, resuspended in Laemmeli buffer, and sonicated. Protein concentration of cell lysates was measured by Bradford assay. Samples in Laemmeli buffer were boiled 10 minutes at 95° C. and loaded onto 7% (whole cell lysates) or 18% (histones) SDS-PAGE gels. Membranes were blocked in 4% non-fat milk in Tris-buffered saline with 0.05% Tween (TBS-T) and incubated with primary antibodies in the same buffer or 5% bovine serum albumin in TBS-T overnight at 4° C. Membranes were incubated with secondary anti-rabbit or anti-mouse antibodies for one hour at room temperature. Blots were visualized by Thermo Scientific Pierce ECL Western Blotting Substrate (32106) or EMD Millipore Immobilon Western Chemiluminescent HRP Substrate (WBKLS0100) on film. Signal was quantified using ImageJ software."}, "[2]": {"tested_on": "H3K4 methylation in ZR-75-1 cells", "assay": "Western blot of global H3K4 methylation, ZR-75-1", "assay_type": "cell-based, human", "conditions": "ZR-75-1, 48 hour treatment", "procedure": "as §1\n(§2) Cells were lysed using previously described methods (Lin et al., 2011, Proc. Natl. Acad. Sci. U.S.A. 108:13379-13386). Histones were separated by centrifugation, resuspended in Laemmeli buffer, and sonicated. Protein concentration of cell lysates was measured by Bradford assay. Samples in Laemmeli buffer were boiled 10 minutes at 95° C. and loaded onto 7% (whole cell lysates) or 18% (histones) SDS-PAGE gels. […] Signal was quantified using ImageJ software."}, "[3]": {"tested_on": "H3K4 methylation in MDA-MB-231 cells", "assay": "Western blot of global H3K4 methylation, MDA-MB-231", "assay_type": "cell-based, human", "conditions": "MDA-MB-231, 72 hr treatment", "procedure": "as §1, §2"}, "[4]": {"tested_on": "H3K4 methylation in MCF10A cells", "assay": "Western blot of global H3K4 methylation, MCF10A", "assay_type": "cell-based, human", "conditions": "72 hr treatment", "procedure": "as §1, §2"}, "ZR-75-1 cells": {"tested_on": "ZR-75-1 cells", "assay": "WST-1 cell proliferation assay, ZR-75-1", "assay_type": "cell-based, human", "conditions": "ZR-75-1, 5 days of treatment", "procedure": "(§3) WST-1 reagent from Roche Applied Sciences (11644807001) was used to measure cell number before drug addition and after 3 or 5 days of growth using previously described methods (Sayegh et al., 2013, J. Biol. Chem. 9408-9417). Cells were seeded in 96-well plates at the following number of cells per well: HeLa (2000), MCF7 (2000), ZR-75-1 (1000), MCF10A (1000), MDA-MB-231(5000). Assays were performed in technical quadruplicates and biological triplicates. DMSO was used at 0.1%. Relative absorbance was calculated by subtracting the average background (media only) signal, dividing by the average signal on day 0, and then dividing by the average day 5/day 0 ratio for the DMSO controls. Significance was calculated by unpaired, two-tailed student's t-test using GraphPad Prism 6.0 software."}, "MCF10A cells": {"tested_on": "MCF10A cells", "assay": "WST-1 cell proliferation assay, MCF10A", "assay_type": "cell-based, human", "conditions": "5 days of treatment", "procedure": "as §3"}, "PC9 cells": {"tested_on": "PC9 cells", "assay": "Colony formation assay, PC9 (gefitinib tolerance)", "assay_type": "cell-based, human", "procedure": "(§4) Cells were seeded in 6-well plates at low density: HeLa, MCF7, BT474, and PC9 cells at 1000, 2000, 2500, and 2000 cells/well respectively. Media containing the prescribed drugs or 0.1% DMSO was replaced every 3 days. Trastuzumab was used at 5 μg/ml. Gefitinib was used at 2 μM. YUKA1 was used at 50 or 100 μM. Doxycycline was used at 1 μg/ml for 3 days. After 7-42 days depending on the rate of cell growth, cells were fixed in 4% para-formaldehyde in phosphate-buffered saline for 10 minutes rocking at room temperature. They were incubated in 0.05% crystal violet in double-distilled water for 30 minutes rocking at room temperature, washed with water, and dried 24 hours before photographing. ColonyArea, a plugin for ImageJ software, was used for quantification (Guzman et al., 2014, PloS One 9:e92444). Unpaired, two-tailed student's t-test was used to determine significance using GraphPad Prism 6.0 software."}, "BT474 cells": {"tested_on": "BT474 cells", "assay": "Colony formation assay, BT474 (trastuzumab tolerance)", "assay_type": "cell-based, human", "procedure": "as §4"}, "MDA-MB231 cells": {"tested_on": "MDA-MB231 cells", "assay": "Colony formation assay, MDA-MB231", "assay_type": "cell-based, human", "conditions": "5 μM KDMS-C70 or 50 or 100 μM YUKA1", "procedure": "as §4\nHeLa (FIG. 11A) and MDA-MB231 cells (FIG. 11B) were treated with DMSO, 5 μM KDMS-C70 or 50 or 100 μM YUKA1 in colony-formation assays. The tables in FIGS. 11C and 11D depict the quantification of experimental data."}}}
{"smiles": "C=CCOc1c(CNn2cnnc2S)cccc1OC", "note": "[YUKA1, 4-([2-(allyloxy)-3-methoxybenzyl]amino)-4H-1,2,4-triazole-3-thiol]", "values": [{"measurement": "fold less active against KDM5C (vs KDM5A)", "setting": "KDM5C", "result": "~3", "unit": "fold"}, {"measurement": "H3K4me2 and H3K4me1 levels", "setting": "[1]; HeLa", "result": "increased"}, {"measurement": "cell activity by global H3K4 methylation changes", "setting": "[1]; HeLa and MCF7 cell lines, western blot", "result": "cell-active"}, {"measurement": "global H3K4me3 levels", "setting": "[1]; HeLa, 48 hour treatment", "result": "dose-dependent increase"}, {"measurement": "global H3K4me3 levels", "setting": "[2]", "result": "increased global H3K4me3 levels"}, {"measurement": "H3K4 methylation", "setting": "[3]", "result": "only minor changes"}, {"measurement": "H3K4 methylation levels", "setting": "[4]", "result": "did not affect H3K4 methylation levels"}, {"measurement": "cell proliferation", "setting": "ZR-75-1 cells", "result": "decreased cell proliferation during 5 days of treatment in a dose-dependent manner"}, {"measurement": "cell proliferation", "setting": "MCF10A cells", "result": "did not hinder cell proliferation"}, {"measurement": "cell growth, compound alone", "setting": "PC9 cells; PC9, compound alone", "result": "not significantly affected"}, {"measurement": "colony formation under gefitinib vs DMSO control", "setting": "PC9 cells; PC9, long-term treatment with 2 μM gefitinib plus compound", "result": "fewer YUKA1-treated cells formed colonies"}, {"measurement": "cell growth, compound alone", "setting": "BT474 cells; BT474, compound alone", "result": "not changed"}, {"measurement": "emergence of colonies under trastuzumab", "setting": "BT474 cells; BT474, trastuzumab 5 μg/ml plus compound", "result": "significantly less"}, {"measurement": "growth in colony-formation assay", "setting": "MDA-MB231 cells", "result": "suppresses growth"}]}
